Reference: patent publication US20110190503A1, “Thiazolopyridin-2-yloxy-phenyl and thiazolopyrazin-2-yloxy-phenyl amines as modulators of leukotriene A4 hydrolase” (Janssen Pharmaceutical NV, priority 2008, published 2011)
Counter-ions that a name gives are not always drawn.

Biological target: T1, recombinant human LTA4 hydrolase (rhLTA4H) (Homo sapiens, UniProt P09960)
T1 construct: made in house; host or cells: Spodoptera frugiperda (Sf-9) cells, recombinant baculovirus (pFastBac1)
T1 sequence (P09960 1-611): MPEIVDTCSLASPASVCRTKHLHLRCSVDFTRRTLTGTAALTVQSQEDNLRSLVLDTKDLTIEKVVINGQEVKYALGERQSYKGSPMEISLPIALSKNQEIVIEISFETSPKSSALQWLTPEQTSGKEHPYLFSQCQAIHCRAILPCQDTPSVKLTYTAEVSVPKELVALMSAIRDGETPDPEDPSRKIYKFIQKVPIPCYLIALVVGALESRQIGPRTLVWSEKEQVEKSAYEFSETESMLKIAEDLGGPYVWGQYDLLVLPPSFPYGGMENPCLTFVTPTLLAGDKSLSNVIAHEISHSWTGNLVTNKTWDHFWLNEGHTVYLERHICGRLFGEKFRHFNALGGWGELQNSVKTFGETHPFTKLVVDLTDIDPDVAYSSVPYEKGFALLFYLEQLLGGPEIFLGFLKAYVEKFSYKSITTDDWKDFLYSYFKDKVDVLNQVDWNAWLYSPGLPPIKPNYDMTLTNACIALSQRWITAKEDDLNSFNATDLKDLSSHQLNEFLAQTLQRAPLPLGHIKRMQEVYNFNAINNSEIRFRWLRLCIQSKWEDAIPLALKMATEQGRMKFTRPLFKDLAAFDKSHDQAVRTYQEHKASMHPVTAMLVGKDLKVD
Test: Recombinant human LTA4 hydrolase assay for LTA4 hydrolase inhibitor activity
Type: biochemical
Conditions: rhLTA4H, LTA4 substrate, LTB4 by immunoassay; single determination or average; read-out: IC50
Protocol: Assay 1: Recombinant Human LTA4 Hydrolase Assay for LTA4 Hydrolase Inhibitor Activity
Compounds of the present invention were tested for LTA4 hydrolase inhibitor activity against recombinant human LTA4 hydrolase (rhLTA4H). Vectors were prepared and used to express rhLTA4H essentially as follows: LTA4 hydrolase encoding DNA was amplified by polymerase chain reaction (PCR) using a human placental cDNA library as a template. […] The amplified 1.9 kb DNA fragment encoding LTA4 hydrolase was isolated and cloned into the pFastBac1 vector (Invitrogen). Recombinant baculovirus was generated as described by the manufacturer, and used to infect Spodoptera frugiperda (Sf-9) cells. […] The purified enzyme solution was adjusted to contain 0.29 mg/mL LTA4 hydrolase, 50 mM Tris (pH 8.0), 150 mM NaCl, 5 mM dithiothreitol, 50% glycerol, and EDTA-free Complete protease inhibitor cocktail (Roche).
LTA4 substrate was prepared from the methyl ester of LTA4 (Cayman Chemical) by treatment with 67 equiv of NaOH under nitrogen at rt for 40 min. The LTA4 substrate in its free acid form was kept frozen at −80° C. until needed. Each compound was diluted to different concentrations in assay buffer (from Assay Designs) containing 10% DMSO. A 25-μL aliquot of each compound dilution was incubated for 10 min at rt with an equal volume of assay buffer containing 10 ng of recombinant human LTA4H. The solution was then adjusted to 200 μL with assay buffer. […] Each reaction was carried out at rt for 30 min. The reaction was stopped by diluting 10 μL of the reaction mixture with 200 μL of assay buffer. LTB4 was quantified in the diluted sample by a commercially available enzyme-linked immunoassay (Cayman Chemical Co.), as recommended by the manufacturer. Positive controls, under essentially identical conditions but without addition of an inhibitor compound, and negative controls, containing all assay components except enzyme, were routinely run in each experiment. IC50 values were determined by nonlinear regression of the activity data at different compound concentrations using Graphpad Prism 4.0, one site binding competition.
The values presented here are the result of a single determination or an average of two or more determinations, as indicated in parentheses following each value. For compounds tested three or more times, the average value is followed by the standard deviation

| Structure (SMILES) | IC50 [nM] |
| --- | --- |
| FC1CCN(CCc2ccc(Oc3nc4nccnc4s3)cc2)CC1 [Example 180, 2-({4-[2-(4-Fluoropiperidin-1-yl)ethyl]phenyl}oxy)[1,3]thiazolo[4,5-b]pyrazine] | 71 |
| CC(=O)N1[C@@H]2CC[C@H]1C[C@H](NCc1ccc(Oc3nc4ncc(C)cc4s3)cc1)C2 [Example 181, meso-(3-exo)-8-Acetyl-N-({4-[(6-methyl[1,3]thiazolo[4,5-b]pyridin-2-yl)oxy]phenyl}methyl)-8-azabicyclo[3.2.1]octan-3-amine] | 332 |
| Cc1cnc2nc(Oc3ccc(CN4CCN(C5CCC5)CC4)cc3)sc2c1 [Example 183, 2-({4-[(4-Cyclobutylpiperazin-1-yl)methyl]phenyl}oxy)-6-methyl[1,3]thiazolo[4,5-b]pyridine] | 67 |
| O=C(c1cccs1)N1CCN(Cc2ccc(Oc3nc4ncc(Cl)cc4s3)cc2)CC1 [Example 187, 6-Chloro-2-[(4-{[4-(2-thienylcarbonyl)piperazin-1-yl]methyl}phenyl)oxy][1,3]thiazolo[4,5-b]pyridine] | 290 |
| Clc1cnc2nc(Oc3ccc(CN4CCSCC4)cc3)sc2c1 [Example 189, 6-Chloro-2-{[4-(thiomorpholin-4-ylmethyl)phenyl]oxy}[1,3]thiazolo[4,5-b]pyridine] | 308 |
| c1cc(C2CCN(Cc3ccc(Oc4nc5cnccc5s4)cc3)CC2)ccn1 [Example 190, 2-({4-[(4-Pyridin-4-ylpiperidin-1-yl)methyl]phenyl}oxy)[1,3]thiazolo[4,5-c]pyridine] | 455 |
| O=C(NC1CCN(CCc2ccc(Oc3nc4ccncc4s3)cc2)CC1)C1CC1 [Example 192, N-(1-{2-[4-([1,3]Thiazolo[5,4-c]pyridin-2-yloxy)phenyl]ethyl}piperidin-4-yl)cyclopropanecarboxamide] | 507 |
| NC(=O)N1C[C@@H]2C[C@H]1CN2Cc1ccc(Oc2nc3ncc(Cl)cc3s2)cc1 [Example 193, (1S,4S)-5-({4-[(6-Chloro[1,3]thiazolo[4,5-b]pyridin-2-yl)oxy]phenyl}methyl)-2,5-diazabicyclo[2.2.1]heptane-2-carboxamide] | 58 |
| CS(=O)(=O)N[C@@H]1CC2CC[C@@H](C1)N2CCc1ccc(Oc2nc3cccnc3s2)cc1 [Example 194, meso-N-[(3-exo)-8-{2-[4-([1,3]Thiazolo[5,4-b]pyridin-2-yloxy)phenyl]ethyl}-8-azabicyclo[3.2.1]oct-3-yl]methanesulfonamide] | 92 |
| O=C(c1ccc(Cl)cc1)C1CCN(CCc2ccc(Oc3nc4cnccc4s3)cc2)CC1 [Example 195, (4-Chlorophenyl)(1-{2-[4-([1,3]thiazolo[4,5-c]pyridin-2-yloxy)phenyl]ethyl}piperidin-4-yl)methanone] | 1370 |
| CCCN(CCC)CCc1ccc(Oc2nc3cnccc3s2)cc1 [Example 196, N-Propyl-N-{2-[4-([1,3]thiazolo[4,5-c]pyridin-2-yloxy)phenyl]ethyl}propan-1-amine] | 87 |
| O=C(C1CC1)N1CCN(CCc2ccc(Oc3nc4ncc(Cl)cc4s3)cc2)CC1 [Example 197, 6-Chloro-2-[(4-{2-[4-(cyclopropylcarbonyl)piperazin-1-yl]ethyl}phenyl)oxy][1,3]thiazolo[4,5-b]pyridine] | 360 |
| NC(=O)N[C@@H]1C[C@H]2CC[C@@H](C1)N2Cc1ccc(Oc2nc3nccnc3s2)cc1 [Example 199, meso-1-{(3-exo)-8-[4-([1,3]Thiazolo[4,5-b]pyrazin-2-yloxy)benzyl]-8-azabicyclo[3.2.1]oct-3-yl}urea] | 42 |
| NC(=O)N[C@@H]1C[C@H]2CC[C@@H](C1)N2Cc1ccc(Oc2nc3ccncc3s2)cc1 [Example 200, meso-1-{(3-exo)-8-[4-([1,3]Thiazolo[5,4-c]pyridin-2-yloxy)benzyl]-8-azabicyclo[3.2.1]oct-3-yl}urea] | 374 |
| NC(=O)N1[C@@H]2CC[C@H]1CN(Cc1ccc(Oc3nc4cnccc4s3)cc1)C2 [Example 202, meso-3-[4-([1,3]Thiazolo[4,5-c]pyridin-2-yloxy)benzyl]-3,8-diazabicyclo[3.2.1]octane-8-carboxamide] | ~9000 |
| Cc1ccnc2nc(Oc3ccc(CN4C[C@H]5CC[C@@H](C4)N5C(N)=O)cc3)sc12 [Example 203, meso-3-{4-[(7-Methyl[1,3]thiazolo[4,5-b]pyridin-2-yl)oxy]benzyl}-3,8-diazabicyclo[3.2.1]octane-8-carboxamide] | 679 |
| Cc1ccnc2nc(Oc3ccc(CN4CCC(NC(=O)c5ccncc5)CC4)cc3)sc12 [Example 206, N-(1-{4-[(7-Methyl[1,3]thiazolo[4,5-b]pyridin-2-yl)oxy]benzyl}piperidin-4-yl)pyridine-4-carboxamide] | 35 |
| CN1CCN(Cc2ccc(Oc3nc4cccnc4s3)cc2)CCC1=O [Example 207, 4-Methyl-1-[4-([1,3]thiazolo[5,4-b]pyridin-2-yloxy)benzyl]-1,4-diazepan-5-one] | 1840 |

The next lines start with the values.

| IC50 [nM] | Structure (SMILES) |
| --- | --- |
| 38 | c1cnc2sc(Oc3ccc(CCN4CCCCCC4)cc3)nc2n1 [Example 179, 2-{[4-(2-Azepan-1-ylethyl)phenyl]oxy}[1,3]thiazolo[4,5-b]pyrazine] |
| 263 | CCCN(Cc1ccc(Oc2nc3cnccc3s2)cc1)CC1CC1 [Example 186, N-(Cyclopropylmethyl)-N-{[4-([1,3]thiazolo[4,5-c]pyridin-2-yloxy)phenyl]methyl}propan-1-amine] |
| 50 | CS(=O)(=O)N1CC2CN(Cc3ccc(Oc4nc5ncc(Cl)cc5s4)cc3)CC2C1 (stereo not drawn) [Example 188, 6-Chloro-2-[(4-{[5-(methylsulfonyl)hexahydropyrrolo[3,4-c]pyrrol-2(1H)-yl]methyl}phenyl)oxy][1,3]thiazolo[4,5-b]pyridine] |
| 72 | NC(=O)N1C[C@H]2C[C@@H]1CN2Cc1ccc(Oc2nc3ncc(Cl)cc3s2)cc1 [Example 191, (1R,4R)-5-({4-[(6-Chloro[1,3]thiazolo[4,5-b]pyridin-2-yl)oxy]phenyl}methyl)-2,5-diazabicyclo[2.2.1]heptane-2-carboxamide] |
| 175 | Cc1cnc2nc(Oc3ccc(CCN4CCC(C(=O)N5CCCC5)CC4)cc3)sc2c1 [Example 198, 6-Methyl-2-[(4-{2-[4-(pyrrolidin-1-ylcarbonyl)piperidin-1-yl]ethyl}phenyl)oxy][1,3]thiazolo[4,5-b]pyridine] |
| 891 | NC(=O)N1[C@@H]2CC[C@H]1C[C@H](NCc1ccc(Oc3nc4cccnc4s3)cc1)C2 [Example 201, meso-(3-exo)-3-{[4-([1,3]Thiazolo[5,4-b]pyridin-2-yloxy)benzyl]amino}-8-azabicyclo[3.2.1]octane-8-carboxamide] |
| 576 | NCCCN(Cc1ccc(Oc2nc3ccncc3s2)cc1)CC1CC1 [Example 204, N-(Cyclopropylmethyl)-N-[4-([1,3]thiazolo[5,4-c]pyridin-2-yloxy)benzyl]propane-1,3-diamine hydrochloride] |
| 49 | Cc1ccnc2nc(Oc3ccc(CN4[C@@H]5CC[C@H]4CN(S(C)(=O)=O)C5)cc3)sc12 [Example 205, meso-7-Methyl-2-(4-{[3-(methylsulfonyl)-3,8-diazabicyclo[3.2.1]oct-8-yl]methyl}phenoxy)[1,3]thiazolo[4,5-b]pyridine] |
| 3900 | OCCCN(CCOc1ccc(Oc2nc3ccncc3s2)cc1)C1CC1 [Example 208, 3-(Cyclopropyl{2-[4-([1,3]thiazolo[5,4-c]pyridin-2-yloxy)phenoxy]ethyl}amino)propan-1-ol] |
